{"source": "patent US9932339B2", "about": "“Helquats with heteroaromatic substituents, preparation thereof, and use thereof as G-quadruplex stabilizers” (USTAV ORGANICKE CHEMIE A BIOCHEMIE AV CR, V.V.I., priority 2014, dated 2018)", "key": {"[1]": {"system": "CCRF-CEM", "test": "XTT cytotoxicity/proliferation assay, CCRF-CEM", "assay_type": "cell-based", "settings": "Homo sapiens, CCRF-CEM", "protocol": "To assess the antiproliferative effects of the tested substances in vitro, tumor cell line CCRF-CEM derived from acute lymphoblastic leukemia and normal (healthy) HUVEC endothelial cells from umbilical vein were used. Both of these cell lines were cultured under optimal conditions for their growth in the appropriate medium in plastic bottles or plastic Petri dishes of various sizes (TPP, BD Biosciences) at 37° C., 5% CO2 and 95% humidity. HUVEC cells were purchased from BD Biosciences. CCRF-CEM cell line was obtained from ATCC/LGC Standards (American Type Cell Collection).\nSuspension cell line CCRF-CEM is a continuous in vitro culture of acute lymphoblastic leukemia. Cell line CCRF-CEM was grown in RPMI 1640 medium (Sigma-Aldrich, cat. No. R8758) supplemented with 2 mmol·l^−1 glutamine (Invitrogen, cat. No. 35050-038), 10% fetal bovine serum (FBS; Sigma-Aldrich, cat. No. F9665), 100 IU/ml penicillin, 100 μg/ml streptomycin (Sigma-Aldrich, cat. No. P0781). Passaging was carried out 2-3 times a week. Population doubling time of CCRF-CEM cells under the used culture conditions is 20 hours.\nFor testing of the sensitivity of cell lines to studied helquats XTT cytotoxicity/proliferation assay for determination of cell viability was used. This method is based on the ability of metabolically active cells to reduce the yellow tetrazolium salt XTT to orange formazan. The rate of conversion is measured as the increase in absorbance at 492 nm and is proportional to the enzymatic activity of mitochondrial dehydrogenases and thus the number of metabolically active (viable) cells. The output is the IC50 value corresponding to the concentration of the test substance that causes a decrease in the number of viable cells by half (i.e. 50% slowdown of cell division) relative to the control, untreated population. Thus it reflects the effectiveness of the test substance towards the tested cell line.\nCells in exponential growth phase were plated into 96-well microtiter plate at a concentration of 3000 cells per well. Each well contained 90 μl of cell suspension. The following day, 10 μl of 10× concentrated test substances was added. Effect of helquats has been studied in the concentration range 1-100 μmol·l^−1 (or 1, 2.5, 5, 7.5, 10; 15; 25; 50 and 100 μmol·l^−1). In addition to the part of the plate containing the mentioned dilutions of test compounds there were always two control columns present, first column with medium alone (i.e. blank) and the second column with the cells in medium without test compounds (control). Into the blank and control wells the same volume of solvent (water) as the volume of the substances was added. After 72 hours of treatment with substances the measurement of viability was performed according to the manufacturer instructions. Briefly, into each well of a 96-well microtiter plate 50 μl of the prepared working solution of XTT (detection reagent) was added and then the microtiter plate was returned to the CO2 incubator. After 2 hours, the absorbance of each well at 492 nm (reference wavelength 690 nm) was measured using a multifunctional microplate reader (Tecan Genios, Austria).\nThe results of determination of the viability of cancer and normal cells after treatment with different concentrations of test substances are summarized in Table 9. […] Each concentration of a helquat was tested in triplicates within one IC50 value determination. Each of these IC50 value determinations was repeated in at least three independent experiments. Values above 100 μmol·l^−1 were obtained by extrapolation of data measured in the concentration range 0-100 μmol·l^−1 of helquats."}, "[2]": {"system": "c-myc protein", "test": "Immunodetection of protein c-myc in HGC-27 cell lysates (Western blot)", "assay_type": "cell-based, human", "settings": "50 μmol · l^−1, 24 hour incubation, normalized to β-actin", "protocol": "Determination of changes in c-myc protein expression (transcription factor) in cell lysates prepared from tumor cell line HGC-27 after treatment with test helquats (Tab. 7) was carried out by immunodetection after separation of proteins according to their size by gel electrophoresis (SDS-PAGE) and blotting.\nTo determine the influence helquats on expression of c-myc protein, the cells were cultured under standard conditions and in the exponential growth phase were seeded into flasks at a density of 25,000 cells/cm^2. The next day selected helquats were added at a concentration of 50 μmol·l^−1. After 24 hour incubation, the cell pellets were obtained and, after addition of RIPA buffer with protease inhibitors (PrIC) and phosphatases (PhIC) (for composition see Tab. 8) cell lysates were prepared. 150 μl of RIPA buffer was used for 10^7 cells. Protein concentrations in the lysates were measured by BCA method. Separation of proteins in the lysates was carried out on a 12% denaturing polyacrylamide gel. The separated proteins were transferred to PVDF membrane by Western blotting.\nIncubation with primary mouse monoclonal antibody against the protein c-myc (dilution 1:1000 in “SignalBoost” reagent) was carried out overnight at 4° C., and then with the primary mouse anti-β-actin (1:5000 dilution in 5% milk in TBS-T buffer) at room temperature for 2 hours. Subsequently, the secondary horse monoclonal antibody conjugated to horseradish peroxidase (diluted 1:2000 in 5% milk in TBS-T buffer) binding to mouse IgG antibody was applied. C-myc proteins and β-actin bound to the membrane were visualized using detection kit (SuperSignal® West Femto Maximum Sensitivity Substrate, Cat. No. 34095, Thermo Fisher Scientific, Inc., USA) in the chemiluminescence detection system ImageQuant LAS 4000 Mini (Cat. No. 28-9558-13, GE Healthcare Life Sciences, USA). The amount of protein was quantified by densitometry in Quantity One software. The amount of c-myc in the samples was normalized to β-actin, and subsequently related to a control sample."}, "[3]": {"system": "HUVEC", "test": "XTT cytotoxicity/proliferation assay, HUVEC", "assay_type": "cell-based, human", "settings": "Homo sapiens, HUVEC", "protocol": "To assess the antiproliferative effects of the tested substances in vitro, tumor cell line CCRF-CEM derived from acute lymphoblastic leukemia and normal (healthy) HUVEC endothelial cells from umbilical vein were used. Both of these cell lines were cultured under optimal conditions for their growth in the appropriate medium in plastic bottles or plastic Petri dishes of various sizes (TPP, BD Biosciences) at 37° C., 5% CO2 and 95% humidity. HUVEC cells were purchased from BD Biosciences. CCRF-CEM cell line was obtained from ATCC/LGC Standards (American Type Cell Collection). Normal human endothelial cells from the umbilical vein are adherent cells, which were grown in plastic Petri dishes coated with collagen I. The culture medium (E-STIMTM; BD Biosciences, cat. […] Then, 5 ml of complete culture media E-STIM™ was added and the cells were centrifuged (180×g, 7 minutes), resuspended and transferred in a desired amount in a new Petri dish with fresh medium. In the experiments cells between passages 3 and 8 (after thawing) were used. Population doubling time of HUVEC cells under the used culture conditions is 38 hours. For testing of the sensitivity of cell lines to studied helquats XTT cytotoxicity/proliferation assay for determination of cell viability was used. This method is based on the ability of metabolically active cells to reduce the yellow tetrazolium salt XTT to orange formazan. The rate of conversion is measured as the increase in absorbance at 492 nm and is proportional to the enzymatic activity of mitochondrial dehydrogenases and thus the number of metabolically active (viable) cells. […] Thus it reflects the effectiveness of the test substance towards the tested cell line. Cells in exponential growth phase were plated into 96-well microtiter plate at a concentration of 3000 cells per well. Each well contained 90 μl of cell suspension. The following day, 10 μl of 10× concentrated test substances was added. […] In addition to the part of the plate containing the mentioned dilutions of test compounds there were always two control columns present, first column with medium alone (i.e. blank) and the second column with the cells in medium without test compounds (control). Into the blank and control wells the same volume of solvent (water) as the volume of the substances was added. After 72 hours of treatment with substances the measurement of viability was performed according to the manufacturer instructions. Briefly, into each well of a 96-well microtiter plate 50 μl of the prepared working solution of XTT (detection reagent) was added and then the microtiter plate was returned to the CO2 incubator. After 2 hours, the absorbance of each well at 492 nm (reference wavelength 690 nm) was measured using a multifunctional microplate reader (Tecan Genios, Austria)."}, "[4]": {"settings": "72 hours of treatment, read-out: IC50 CCRF CEM"}, "[5]": {"settings": "72 hours of treatment, values above 100 μmol·l^−1 obtained by extrapolation, read-out: IC50 HUVEC"}}, "note": "Like-named read-outs stand apart in the source and are kept apart here."}
{"smiles": "C(=C\\c1cc2ccccc2o1)/c1cc(/C=C/c2cc3ccccc3o2)[n+]2c(c1)-c1c(ccc3c1-c1cccc[n+]1CC3)CC2.O=S(=O)([O-])C(F)(F)F.O=S(=O)([O-])C(F)(F)F", "note": "[HTA-C9-17, 2,4-bis((E)-2-(benzofuran-2-yl)vinyl)-6,7,10,11-tetrahydrodipyrido[2,1-a:1′,2′-k][2,9]phenanthroline-5,12-diium trifluoromethanesulfonate]", "values": [{"measurement": "IC50", "setting": "[1]; [4]", "value": "26 to 50", "unit": "µM"}, {"measurement": "c-myc protein expression relative to control (control = 100%)", "setting": "[2]", "value": 44, "unit": "%"}, {"measurement": "IC50", "setting": "[3]; [5]", "value": "≥ 51", "unit": "µM"}]}
{"smiles": "C(=C\\c1ccc(-c2cccs2)s1)/c1cc(/C=C/c2ccc(-c3cccs3)s2)[n+]2c(c1)-c1c(ccc3c1-c1cccc[n+]1CC3)CC2.O=S(=O)([O-])C(F)(F)F.O=S(=O)([O-])C(F)(F)F", "note": "[HTA-C9-16, 2,4-bis((E)-2-([2,2′-bithiophen]-5-yl)vinyl)-6,7,10,11-tetrahydrodipyrido[2,1-a:1′,2′-k][2,9]phenanthroline-5,12-diium trifluoromethanesulfonate]", "values": [{"measurement": "IC50", "setting": "[1]; [4]", "value": "11 to 25", "unit": "µM"}, {"measurement": "c-myc protein expression relative to control (control = 100%)", "setting": "[2]", "value": 32, "unit": "%"}, {"measurement": "IC50", "setting": "[3]; [5]", "value": "26 to 50", "unit": "µM"}]}
{"smiles": "Brc1ccc2c(/C=C/c3cc4ccccc4[n+]4c3-c3c(ccc5c3-c3cccc[n+]3CCC5)CCC4)c[nH]c2c1.O=S(=O)([O-])C(F)(F)F.O=S(=O)([O-])C(F)(F)F", "note": "[MSC-C9-18, 19-((E)-2-(6-bromo-1H-indol-3-yl)vinyl)-6,7,8,11,12,13-hexahydropyrido[1′″,2′″:1″,2″]azepino[4″,3″:5′,6′]benzo[1′,2′:3,4]azepino[1,2-a]quinoline-5,14-diium trifluoromethanesulfonate]", "values": [{"measurement": "IC50", "setting": "[1]; [4]", "value": "11 to 25", "unit": "µM"}, {"measurement": "c-myc protein expression relative to control (control = 100%)", "setting": "[2]", "value": 31, "unit": "%"}, {"measurement": "IC50", "setting": "[3]; [5]", "value": "≥ 51", "unit": "µM"}]}
{"smiles": "C(=C\\c1cc2ccccc2[n+]2c1-c1c(ccc3c1-c1cccc[n+]1CCC3)CCC2)/c1ccc(-c2cccs2)s1.O=S(=O)([O-])C(F)(F)F.O=S(=O)([O-])C(F)(F)F", "note": "[MSC-C9-16, 19-((E)-2-([2,2′-bithiophen]-5-yl)vinyl)-6,7,8,11,12,13-hexahydropyrido[1′″,2′″:1″,2″]azepino[4″,3″:5′,6′]benzo[1′,2′:3,4]azepino[1,2-a]quinoline-5,14-diium trifluoromethanesulfonate]", "values": [{"measurement": "IC50", "setting": "[1]; [4]", "value": "≤ 10", "unit": "µM"}, {"measurement": "IC50", "setting": "[1]; 72 hours, summary of table 9, read-out: concentrations toxic towards CCRF-CEM cells", "value": "< 25", "unit": "µM"}, {"measurement": "c-myc protein expression relative to control (control = 100%)", "setting": "[2]", "value": 36, "unit": "%"}, {"measurement": "IC50", "setting": "[3]; [5]", "value": "≥ 100", "unit": "µM"}, {"measurement": "IC50", "setting": "[3]; 72 hours, summary of table 9, read-out: concentrations non-toxic towards HUVEC cells", "value": "> 100", "unit": "µM"}]}
{"smiles": "Cc1c(/C=C/c2cc3ccccc3[n+]3c2-c2c(ccc4c2-c2cccc[n+]2CCC4)CCC3)sc2ccccc12.O=S(=O)([O-])C(F)(F)F.O=S(=O)([O-])C(F)(F)F", "note": "[MSC-C10-36, 19-((E)-2-(3-methylbenzo[b]thiophen-2-yl)vinyl)-6,7,8,11,12,13-hexahydropyrido[1′″,2′″:1″,2″]azepino[4″,3″:5′,6′]benzo[1′,2′:3,4]azepino[1,2-a]quinoline-5,14-diium trifluoromethanesulfonate]", "values": [{"measurement": "IC50", "setting": "[1]; [4]", "value": "≤ 10", "unit": "µM"}, {"measurement": "c-myc protein expression relative to control (control = 100%)", "setting": "[2]", "value": 85, "unit": "%"}, {"measurement": "IC50", "setting": "[3]; [5]", "value": "≥ 51", "unit": "µM"}]}
